Assay results reported in US20230391772A1, “METHODS AND COMPOSITIONS FOR TARGETED PROTEIN DEGRADATION” (Ranok Therapeutics (Hangzhou) Co. Ltd., priority 2020, published 2023).

Legend:
HSP90a protein [1] = target: T1, HSP90a protein (Homo sapiens, UniProt P07900); experiment: HSP90α-binding fluorescent polarization (FP) assay, FITC-geldanamycin probe; conditions: FP competition with FITC-geldanamycin, 5 nM, 120 min at 25° C.
T1 construct: purchased BPS Bioscience 50298
Procedure: HSP90α-Binding Fluorescent Polarization (FP) Assay
Binding of test compounds to HSP90a protein was measured by fluorescent polarization (FP) using the HSP90a (N-terminal) Assay Kit (BPS Bioscience, #50298), following the manufacturer's instructions, except as noted. Fluorescently labeled HSP90-binding compounds, either the provided FITC-geldanamycin (5 nM final concentration) or RNK04010, a triazolone-based HSP90 binding small molecule labeled with BODIPY through a piperizine-phenyl linker (5 nM final concentration) were employed. A 2.5-fold serial dilution of each test compound ranging from 20 μM to 5.2 nM was assayed for binding to HSP90a. After the final step of adding HSP90a protein to each assay well, plates were mixed by brief shaking, incubated at 25° C. for 120 min for FITC-geldanamycin or 300 min for RNK04010, and fluorescence was measured using a PerkinElmer EnVision Plate Reader.

[2] = tested on: NCI-H358 human non-small cell lung cancer; experiment: NCI-H358 CCK-8 proliferation assay; format: cell-based; conditions: NCI-H358 cells, 72 hr
Method in brief: (§1)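 MIA PaCa-2 (2 copies KRAS(G12C)), NCI-H358 and NCI-H23 (1 copy KRAS(G12C) each) were exposed to compound in 3-fold serial dilutions from 20 μM to 1.02 nM. Viability was read as CCK-8 absorbance, and % inhibition was computed against DMSO-treated cells, with cell-free DMSO medium as blank.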

HSP90a protein [3] = target: T1, HSP90a protein; experiment: HSP90α-binding fluorescent polarization (FP) assay, BODIPY-labeled RNK04010 probe; conditions: FP competition with RNK04010 (BODIPY-labeled), 5 nM, 300 min at 25° C.
Method in brief: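 Binding was scored by fluorescence polarization after adding N-terminal HSP90a to wells holding probe and compound, with compound tested from 20 μM to 5.2 nM. Probe-dependent times at 25° C were 120 min for FITC-geldanamycin and 300 min for RNK04010-BODIPY, both at 5 nM final.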

[4] = tested on: MIA PaCa-2 human pancreatic carcinoma; experiment: MIA PaCa-2 CCK-8 proliferation assay; format: cell-based; conditions: Homo sapiens, MIA PaCa-2, 72 h, MIA PaCa-2 cells
Method in brief: as §1

SMILES | IC50 (HSP90a protein [1]) [nM] | EC50 [2] [nM] | IC50 (HSP90a protein [3]) [nM] | EC50 [4] [nM]
C=C(F)C(=O)N1CCN(c2nc(N3CCN(Cc4ccc(-n5c(O)nnc5-c5cc(CC)c(O)cc5O)cc4)CC3)nc3c2CCN(c2cccc4cccc(Cl)c24)C3)C[C@@H]1CC#N [Compound 143, (S)-2-(4-(7-(8-chloronaphthalen-1-yl)-2-(4-(4-(3-(5-ethyl-2,4-dihydroxyphenyl)-5-hydroxy-4H-1,2,4-triazol-4-yl)benzyl)piperazin-1-yl)-5,6,7,8-tetrahydropyrido[3,4-d]pyrimidin-4-yl)-1-(2-fluoroacryloyl)piperazin-2-yl)acetonitrile] | > 1000 | > 1000 |  | 
CCC(=O)N1CCN(c2nc(OC[C@@H]3CCCN3C(=O)C3CCN(Cc4ccc(-n5c(O)nnc5-c5cc(C(C)C)c(O)cc5O)cc4)CC3)nc3c2CCN(c2cccc4cccc(Cl)c24)C3)C[C@@H]1CC#N [Compound 140, 2-((S)-4-(7-(8-chloronaphthalen-1-yl)-2-(((S)-1-(1-(4-(3-(2,4-dihydroxy-5-isopropylphenyl)-5-hydroxy-4H-1,2,4-triazol-4-yl)benzyl)piperidine-4-carbonyl)pyrrolidin-2-yl)methoxy)-5,6,7,8-tetrahydropyrido[3,4-d]pyrimidin-4-yl)-1-propionylpiperazin-2-yl)acetonitrile] | 100 to 1000 | 100 to 1000 |  | 
CCC(=O)N1CCN(c2nc(OC[C@@H]3CCN3C(=O)C3CCN(Cc4ccc(-n5c(O)nnc5-c5cc(C(C)C)c(O)cc5O)cc4)CC3)nc3c2CCN(c2cccc4cccc(Cl)c24)C3)C[C@@H]1CC#N [Compound 152, 2-((S)-4-(7-(8-chloronaphthalen-1-yl)-2-(((S)-1-(1-(4-(3-(2,4-dihydroxy-5-isopropylphenyl)-5-hydroxy-4H-1,2,4-triazol-4-yl)benzyl)piperidine-4-carbonyl)azetidin-2-yl)methoxy)-5,6,7,8-tetrahydropyrido[3,4-d]pyrimidin-4-yl)-1-propionylpiperazin-2-yl)acetonitrile, trifluoroacetic acid] | < 100 | > 1000 |  | 
CCC(=O)N1CCN(c2nc(N3CCC(CN4CCN(Cc5ccc(-n6c(O)nnc6-c6cc(CC)c(O)cc6O)cc5)CC4)CC3)nc3c2CCN(c2cccc4cccc(Cl)c24)C3)C[C@@H]1CC#N [Compound 133, (S)-2-(4-(7-(8-chloronaphthalen-1-yl)-2-(4-((4-(4-(3-(5-ethyl-2,4-dihydroxyphenyl)-5-hydroxy-4H-1,2,4-triazol-4-yl)benzyl)piperazin-1-yl)methyl)piperidin-1-yl)-5,6,7,8-tetrahydropyrido[3,4-d]pyrimidin-4-yl)-1-propionylpiperazin-2-yl)acetonitrile, trifluoroacetic acid] | 100 to 1000 | 100 to 1000 |  | 
C=C(F)C(=O)N1CCN(c2nc(OC[C@@H]3CCCN3C(=O)C3CCN(Cc4ccc(-n5c(O)nnc5-c5cc(C(C)C)c(O)cc5O)cc4)CC3)nc3c2CCN(c2cccc4cccc(Cl)c24)C3)C[C@@H]1CC#N [Compound 144, 2-((S)-4-(7-(8-chloronaphthalen-1-yl)-2-(((S)-1-(1-(4-(3-(2,4-dihydroxy-5-isopropylphenyl)-5-hydroxy-4H-1,2,4-triazol-4-yl)benzyl)piperidine-4-carbonyl)pyrrolidin-2-yl)methoxy)-5,6,7,8-tetrahydropyrido[3,4-d]pyrimidin-4-yl)-1-(2-fluoroacryloyl)piperazin-2-yl)acetonitrile] | 100 to 1000 | > 1000 |  | 
CCC(=O)N1CCN(c2nc(OCC3CN(C(=O)C4CCN(Cc5ccc(-n6c(O)nnc6-c6cc(C(C)C)c(O)cc6O)cc5)CC4)C3)nc3c2CCN(c2cccc4cccc(Cl)c24)C3)C[C@@H]1CC#N [Compound 146, (S)-2-(4-(7-(8-chloronaphthalen-1-yl)-2-((1-(1-(4-(3-(2,4-dihydroxy-5-isopropylphenyl)-5-hydroxy-4H-1,2,4-triazol-4-yl)benzyl)piperidine-4-carbonyl)azetidin-3-yl)methoxy)-5,6,7,8-tetrahydropyrido[3,4-d]pyrimidin-4-yl)-1-propionylpiperazin-2-yl)acetonitrile] | 100 to 1000 | 100 to 1000 |  | 
CC(C)c1cc(-c2nnc(O)n2-c2ccc(CN3CCN(C4CCN(c5nc6c(c(N7CCN(C(=O)C(F)(F)F)[C@@H](CC#N)C7)n5)CCN(c5cccc7cccc(Cl)c57)C6)CC4)CC3)cc2)c(O)cc1O [Compound 136, (S)-2-(4-(7-(8-chloronaphthalen-1-yl)-2-(4-(4-(4-(3-(2,4-dihydroxy-5-isopropylphenyl)-5-hydroxy-4H-1,2,4-triazol-4-yl)benzyl)piperazin-1-yl)piperidin-1-yl)-5,6,7,8-tetrahydropyrido[3,4-d]pyrimidin-4-yl)-1-(2,2,2-trifluoroacetyl)piperazin-2-yl)acetonitrile] | > 1000 | 100 to 1000 |  | 
CCC(=O)N1CCN(c2nc(NCCC(=O)NCCc3ccc(CN4CCC(Cc5ccc(-n6c(C(=O)NCC(F)(F)F)nnc6-c6cc(C(C)C)c(O)cc6O)cc5)CC4)cc3)nc3c2CCN(c2cc(O)cc4ccccc24)C3)CC1 [Compound 149] | 100 to 1000 | 100 to 1000 |  | 
C=C(F)C(=O)N1CCN(c2nc(OC[C@@H]3CCN(C(=O)c4cc(CC)c(O)cc4O)C3)nc3c2CCN(c2cccc4cccc(Cl)c24)C3)C[C@@H]1CC#N [Compound 174, 2-((S)-4-(7-(8-chloronaphthalen-1-yl)-2-(((R)-1-(5-ethyl-2,4-dihydroxybenzoyl)pyrrolidin-3-yl)methoxy)-5,6,7,8-tetrahydropyrido[3,4-d]pyrimidin-4-yl)-1-(2-fluoroacryloyl)piperazin-2-yl)acetonitrile] | > 1000 |  | > 1000 | > 1000
C=CC(=O)N1CCN(c2nc(OC[C@@H]3CCN(C(=O)c4ccc5c(c4)CN(C(=O)c4cc(C(C)C)c(OC)cc4O)C5)C3)nc3c2CCN(c2cccc4cccc(Cl)c24)C3)C[C@@H]1CC#N [Compound 173, 2-((S)-1-acryloyl-4-(7-(8-chloronaphthalen-1-yl)-2-(((R)-1-(2-(2-hydroxy-5-isopropyl-4-methoxybenzoyl)isoindoline-5-carbonyl)pyrrolidin-3-yl)methoxy)-5,6,7,8-tetrahydropyrido[3,4-d]pyrimidin-4-yl)piperazin-2-yl)acetonitrile] | > 1000 |  | > 1000 | > 1000
CCC(=O)N1CCN(c2nc(NCCCNC(=O)C3CCN(Cc4ccc(-n5c(O)nnc5-c5cc(C(C)C)c(O)cc5O)cc4)CC3)nc3c2CCN(c2cccc4cccc(Cl)c24)C3)C[C@@H]1CC#N [Compound 134, (S)—N-(3-((7-(8-chloronaphthalen-1-yl)-4-(3-(cyanomethyl)-4-propionylpiperazin-1-yl)-5,6,7,8-tetrahydropyrido[3,4-d]pyrimidin-2-yl)amino)propyl)-1-(4-(3-(2,4-dihydroxy-5-isopropylphenyl)-5-hydroxy-4H-1,2,4-triazol-4-yl)benzyl)piperidine-4-carboxamide, trifluoroacetic acid] | 100 to 1000 | > 1000 |  | 
CCC(=O)N1CCN(c2nc(OCCC(=O)NCCc3ccc(CN4CCC(Cc5ccc(-n6c(C(=O)NCC(F)(F)F)nnc6-c6cc(C(C)C)c(O)cc6O)cc5)CC4)cc3)nc3c2CCN(c2cc(O)cc4ccccc24)C3)CC1 [Compound 151, 5-(2,4-dihydroxy-5-isopropylphenyl)-4-(4-((1-(4-(2-(3-((7-(3-hydroxynaphthalen-1-yl)-4-(4-propionylpiperazin-1-yl)-5,6,7,8-tetrahydropyrido[3,4-d]pyrimidin-2-yl)oxy)propanamido)ethyl)benzyl)piperidin-4-yl)methyl)phenyl)-N-(2,2,2-trifluoroethyl)-4H-1,2,4-triazole-3-carboxamide] | 100 to 1000 | 100 to 1000 |  | 
C=C(F)C(=O)N1CCN(c2nc(N3CCC(Cc4ccc(-n5c(C(=O)NCC(F)(F)F)nnc5-c5cc(C(C)C)c(O)cc5O)cc4)CC3)nc3c2CCN(c2cccc4cccc(Cl)c24)C3)C[C@@H]1CC#N [Compound 142, (S)-4-(4-((1-(7-(8-chloronaphthalen-1-yl)-4-(3-(cyanomethyl)-4-(2-fluoroacryloyl)piperazin-1-yl)-5,6,7,8-tetrahydropyrido[3,4-d]pyrimidin-2-yl)piperidin-4-yl)methyl)phenyl)-5-(2,4-dihydroxy-5-isopropylphenyl)-N-(2,2,2-trifluoroethyl)-4H-1,2,4-triazole-3-carboxamide] | > 1000 | > 1000 |  | 
C=C(F)C(=O)N1CCN(c2nc(N3CCC(CN4CCN(Cc5ccc(-n6c(O)nnc6-c6cc(CC)c(O)cc6O)cc5)CC4)CC3)nc3c2CCN(c2cccc4cccc(Cl)c24)C3)C[C@@H]1CC#N [Compound 135, (S)-2-(4-(7-(8-chloronaphthalen-1-yl)-2-(4-((4-(4-(3-(5-ethyl-2,4-dihydroxyphenyl)-5-hydroxy-4H-1,2,4-triazol-4-yl)benzyl)piperazin-1-yl)methyl)piperidin-1-yl)-5,6,7,8-tetrahydropyrido[3,4-d]pyrimidin-4-yl)-1-(2-fluoroacryloyl)piperazin-2-yl)acetonitrile] | 100 to 1000 | > 1000 |  | 
